Test results as given in patent US20110001093A1, “FULLERENE DERIVATIVE” (SUMITOMO CHEMICAL COMPANY LIMITED, priority 2007, published 2011).

assay: Evaluation of solubility in xylene (visual observation); assay type: physicochemical; conditions: stirred by magnetic stirrer 10 minutes, visually observed

Structure (SMILES)	Solubility of a 1 wt % xylene solution
COCCOCCN1CC2C3=c4c5c6c7c(cc8cc9cc%10cc%11cc%12c%13c(c4c4c5c5c7c8c7c9c%10c8c%11c%13c4c8c75)=C(C3)C%12)CC62C1c1cccc2ccccc12 (stereo not shown) [Fullerene derivative A, N-methoxyethoxyethyl-2-(1-naphthyl)fulleropyrrolidine]	Dissolved
COCCOCCN1CC2C3=c4c5c6c7c(cc8cc9cc%10cc%11cc%12c%13c(c4c4c5c5c7c8c7c9c%10c8c%11c%13c4c8c75)=C(C3)C%12)CC62C1c1c(F)c(F)c(F)c(F)c1F (stereo not shown) [Fullerene derivative B, N-methoxyethoxyethyl-2-(perfluorophenyl)fulleropyrrolidine]	Dissolved
COCCOCCN1CC2C3=c4c5c6c7c(cc8cc9cc%10cc%11cc%12c%13c(c4c4c5c5c7c8c7c9c%10c8c%11c%13c4c8c75)=C(C3)C%12)CC62C1c1ccc(F)cc1 (stereo not shown) [Fullerene derivative C, N-methoxyethoxyethyl-2-(4-fluorophenyl) fulleropyrrolidine]	Dissolved
COCCOCCN1CC2C3=c4c5c6c7c(cc8cc9cc%10cc%11cc%12c%13c(c4c4c5c5c7c8c7c9c%10c8c%11c%13c4c8c75)=C(C3)C%12)CC62C1c1ccc(C)cc1 (stereo not shown) [Fullerene derivative D, N-methoxyethoxyethyl-2-(4-methylphenyl)fulleropyrrolidine]	Dissolved
COCCOCCN1CC2C3=c4c5c6c7c(cc8cc9cc%10cc%11cc%12c%13c(c4c4c5c5c7c8c7c9c%10c8c%11c%13c4c8c75)=C(C3)C%12)CC62C1c1ccccc1 (stereo not shown) [Fullerene derivative E, N-methoxyethoxyethyl-2-phenyl-fulleropyrrolidine]	Dissolved
COCCOCCN1CC2C3=c4c5c6c7c(cc8cc9cc%10cc%11cc%12c%13c(c4c4c5c5c7c8c7c9c%10c8c%11c%13c4c8c75)=C(C3)C%12)CC62C1c1ccc(C(F)(F)F)cc1 (stereo not shown) [Fullerene derivative F]	Dissolved
COCCOCCN1CC2C3=c4c5c6c7c(cc8cc9cc%10cc%11cc%12c%13c(c4c4c5c5c7c8c7c9c%10c8c%11c%13c4c8c75)=C(C3)C%12)CC62C1CCc1ccccc1 (stereo not shown) [Fullerene derivative G, N-methoxyethoxyethyl-2-(2-phenylethyl)fulleropyrrolidine]	Dissolved
